No end group written: not given here.
Experiments:
Experiment in all cases: biochemical
[1] = target: DRB1*0405 (Homo sapiens, UniProt P01903+P01911, A100R/A169T/D86S/F76Y/I96L/K127E/L162R/M171V/N62H/P40V/Q125Y/R42H/S133A/S149N/S66Y/V115G/V209L/W38E); type: binding
[2] = target: DRB1*1101 (Homo sapiens, UniProt P01903+P01911, A100R/A169T/A87E/I96F/K41T/L162R/M171V/P40S/Q125H/Q178H/Q39Y/Q99D/R42S/S66Y/T262R/V115G/W38E); conditions: Binding affinity DRB1 *1101
[3] = target: DRB1*1302 (Homo sapiens, UniProt P01903+P01911, A100E/A169T/K41T/L162R/M171V/P40S/Q125H/Q178H/Q39Y/Q99D/R42S/S66N/T262R/V115G/W38E/Y61H); type: binding
[4] = target: DRB1*1501 (Homo sapiens, UniProt P01903+P01911); type: binding
[5] = target: DRB1*0802 (Homo sapiens, UniProt P01903+P01911, A100R/A103L/A169T/F76Y/H45Y/I96F/K41T/L162R/M171V/P40S/Q125H/Q178H/Q39Y/Q99D/R218S/R42G/S66Y/V115G/W38E); type: binding
[6] = target: DR1 (DRB1*0101) (Homo sapiens, UniProt P01903+P01911, A100R/D57E/F55L/F60I/F76Y/I96L/L162R/M171V/P40L/Q125E/R42F/V115G/Y59C); type: binding
[7] = target: DRB4*0101 (Homo sapiens, UniProt P01903+P13762, G164S); type: binding
[8] = target: DRB5*0101 (Homo sapiens, UniProt P01903+Q30154); conditions: Binding affinity DRB5 *0101
[9] = target: DRB3*0101 (Homo sapiens, UniProt P01903+P79483); type: binding
[10] = target: DR7 (DRB1*0701) (Homo sapiens, UniProt P01903+P01911, A100R/A102G/A103Q/D57E/D86V/E43K/F76Y/K127E/L162R/M171V/P40G/Q125H/Q99D/R33Q/R42Y/R54Q/S133A/S66F/T210M/V115G/Y107V/Y59L/Y89S); type: binding
[11] = target: DRB1*0901 (Homo sapiens, UniProt P01903+P01911, A100R/A103E/D57H/D86V/F55Y/F60I/F76Y/I96F/K127E/L162R/M171V/P40D/Q125H/Q99R/R33Q/R42F/S133A/S66N/T210M/V115G/W38K/Y107V/Y59G/Y89S); type: binding
[12] = target: DRB1*0301 (Homo sapiens, UniProt P01903+P01911, A100K/A102G/A103R/A169T/F55Y/I96L/K41T/L162R/M171V/P40S/Q125H/Q178H/Q39Y/R42S/S66N/T106N/T262R/W38E/Y61H); type: binding
[13] = target: DR4w4 (DRB1*0401) (Homo sapiens, UniProt P01903+P01911, A100K/A169T/F76Y/I96L/K127E/L162R/M171V/N62H/P40V/Q125Y/R42H/S133A/S149N/S66Y/V115G/V209L/W38E); type: binding

Sequence of DRB1*0301 (P01903 26-254 limits assumed, other chains not shown): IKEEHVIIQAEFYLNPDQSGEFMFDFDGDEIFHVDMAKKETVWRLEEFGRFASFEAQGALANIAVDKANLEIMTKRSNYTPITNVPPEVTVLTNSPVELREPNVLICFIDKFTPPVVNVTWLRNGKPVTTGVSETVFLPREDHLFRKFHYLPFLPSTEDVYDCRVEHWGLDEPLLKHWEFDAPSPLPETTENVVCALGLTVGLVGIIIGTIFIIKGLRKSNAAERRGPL
Sequence of DRB1*1302 (P01903 26-254 limits assumed, other chains not shown): as above
Sequence of DRB1*1101 (P01903 26-254 limits assumed, other chains not shown): as above

| Molecule | IC50 [1] [µM] | IC50 [2] [µM] | IC50 [3] [µM] | IC50 [4] [µM] | IC50 [5] [µM] | IC50 [6] [µM] | IC50 [7] [µM] | IC50 [8] [µM] | IC50 [9] [µM] | IC50 [10] [µM] | IC50 [11] [µM] | IC50 [12] [µM] | IC50 [13] [µM] |
| --- | --- | --- | --- | --- | --- | --- | --- | --- | --- | --- | --- | --- | --- |
| CC(C)[C@H](NC(=O)[C@H](CCC(=O)O)NC(=O)[C@H](Cc1c[nH]c2ccccc12)NC(=O)[C@@H](NC(=O)CNC(=O)[C@@H](NC(=O)[C@H](CC(N)=O)NC(=O)CNC(=O)[C@H](Cc1ccc(O)cc1)NC(=O)[C@H](CCCCN)NC(=O)[C@@H](N)CCC(=O)O)[C@@H](C)O)[C@@H](C)O)C(=O)N[C@@H](Cc1c[nH]cn1)C(=O)N[C@@H](Cc1ccccc1)C(=O)NCC(=O)N[C@@H](CC(N)=O)C(=O)O [Peptide 1601.11] | 14.7 | > 20 | > 20 | > 20 | > 20 | 0.505 | > 20 | > 20 | > 20 | 0.091 | 2.49 | > 20 |  |
| CC(C)C[C@H](NC(=O)[C@H](CCC(N)=O)NC(=O)[C@H](CCCCN)NC(=O)[C@@H](NC(=O)[C@H](CC(C)C)NC(=O)[C@H](CCC(N)=O)NC(=O)[C@@H](NC(=O)[C@H](C)NC(=O)[C@H](CO)NC(=O)[C@@H](NC(=O)[C@@H](NC(=O)[C@H](CC(=O)O)NC(=O)[C@H](CC(=O)O)NC(=O)[C@@H](N)CO)[C@@H](C)O)C(C)C)[C@@H](C)O)C(C)C)C(=O)N[C@@H](CCC(N)=O)C(=O)O [Peptide 1601.13] | 16.3 | 15.6 | 16.5 | > 20 | 19.3 | 7.24 | 0.026 | > 20 | > 20 | 7.67 |  | 10.5 | 9.55 |
| CC[C@H](C)[C@H](NC(=O)CNC(=O)[C@@H](NC(=O)[C@H](CCCCN)NC(=O)[C@H](CCC(=O)O)NC(=O)[C@H](CC(N)=O)NC(=O)CNC(=O)[C@H](C)N)[C@@H](C)O)C(=O)N[C@@H](CC(C)C)C(=O)N[C@H](C(=O)N[C@H](C(=O)N[C@H](C(=O)N[C@@H](Cc1ccc(O)cc1)C(=O)N[C@@H](Cc1c[nH]cn1)C(=O)N[C@@H](CO)C(=O)O)[C@@H](C)O)C(C)C)[C@@H](C)O [Peptide 1601.18] | 6.75 | > 20 | > 20 | 2.81 | > 20 | > 20 | 0.932 | > 20 | > 20 |  | > 20 | > 20 | 3.99 |
| CC[C@H](C)[C@H](NC(=O)[C@@H](NC(=O)[C@@H]1CCCN1C(=O)[C@@H](NC(=O)[C@@H](NC(=O)[C@H](CC(N)=O)NC(=O)CNC(=O)[C@H](CO)NC(=O)[C@H](CS)NC(=O)[C@@H](NC(=O)[C@H](CCCCN)NC(=O)[C@@H](N)CCCNC(=N)N)C(C)C)[C@@H](C)O)[C@@H](C)O)[C@@H](C)CC)C(=O)N[C@@H](Cc1c[nH]cn1)C(=O)N[C@@H](CC(C)C)C(=O)N[C@@H](CCCCN)C(=O)O [Peptide 1601.43] | 9.21 | > 20 | 0.011 | 8.05 | 8.06 | 1.31 | 2.1 | 18 | > 20 |  | 1.12 | > 20 |  |
| DFLNTVKIPNTVSVS [Peptide 1601.28] | 11.8 | 0.277 | 0.131 | 2.19 | 2.09 | 0.777 |  | > 20 | > 20 | 0.469 | 0.373 | > 20 | 0.5 |
| DICNTMHYTNWTHIY [Peptide 1601.04] | 2.82 | > 20 | 1.04 |  |  | 8.96 | 6.05 | > 20 | 7.2 | 0.412 | 4.85 | 14.8 | 0.883 |
| DSVDSVNCGVISAAA [Peptide 1601.24] | 13.6 | > 20 | 0.736 | > 20 | > 20 | 0.916 | 8.71 | > 20 | > 20 | 2.14 | 6.73 | > 20 | 1.28 |
| FLDVVTIPNSVQISV [Peptide 1601.40] | 1.78 | 2.2 | 0.053 |  | 14.7 | 0.551 | 2.21 | > 20 | 17.6 | 0.492 | 9.35 | 8.36 | 0.017 |
